From article PMC11995724, “Antibiotic target discovery by integrated phenotypic and activity-based profiling of electrophilic fragments” (Cell chemical biology, 2025) come the findings set out here.

Each structure is given as a SMILES string.

This data set can be described thus: in vitro. Conditions: human, hek293t cells.
Consider `CC(Cl)C(=O)N1CCCCCC1c1noc(-c2cnn(C)c2)n1` (stereo not drawn) [7-C05, 2-chloro-1-{2-[5-(1-methyl-1H-pyrazol-4-yl)-1,2,4-oxadiazol-3-yl]azepan-1-yl}propan-1-one], for which the viability at 48 h, 25 µM worked out at 92.8%.
As for `CC(Cl)C(=O)N1CCc2ncsc2C1` (stereo not drawn) [7-C06, 2-chloro-1-{4H,5H,6H,7H-[1,3]thiazolo[5,4-c]pyridin-5-yl}propan-1-one], the figure is 92.6%; as for `CC(Cl)C(=O)N1CCC(N(CC(F)(F)F)S(C)(=O)=O)CC1` (stereo not drawn) [7-C07, N-[1-(2-chloropropanoyl)piperidin-4-yl]-N-(2,2,2-trifluoroethyl)methanesulfonamide], 94.8%.
With `CC(Cl)C(=O)N1CCOCC1c1ncnn1Cc1ccccc1` (stereo not drawn) [7-C08, 1-[3-(1-benzyl-1H-1,2,4-triazol-5-yl)morpholin-4-yl]-2-chloropropan-1-one], the viability at 48 h, 25 µM stood at 95.7%.
As to `CC(Cl)C(=O)N1C2C=C(c3ccccc3)CC1CC2` (stereo not drawn) [7-C09, 2-chloro-1-{3-phenyl-8-azabicyclo[3.2.1]oct-2-en-8-yl}propan-1-one], the viability at 48 h, 25 µM came out at 81.3%.
As for `CC(Cl)C(=O)N(C)Cc1ncnn1CC(F)F` (stereo not drawn) [7-C10, 2-chloro-N-{[1-(2,2-difluoroethyl)-1H-1,2,4-triazol-5-yl]methyl}-N-methylpropanamide], the figure is 97.8%; as for `CC(Cl)C(=O)NCc1csc2ccccc12` (stereo not drawn) [7-C11, N-[(1-benzothiophen-3-yl)methyl]-2-chloropropanamide], 81.9%.
With `CC(Cl)C(=O)NCCc1c[nH]c2ncccc12` (stereo not drawn) [7-C12, 2-chloro-N-(2-{1H-pyrrolo[2,3-b]pyridin-3-yl}ethyl)propanamide], the viability at 48 h, 25 µM was found to be 88.4%.
Take `CC(Cl)C(=O)N1CCCC(NS(=O)(=O)c2cccc(F)c2)C1` (stereo not drawn) [7-C13, N-[1-(2-chloropropanoyl)piperidin-3-yl]-3-fluorobenzene-1-sulfonamide]: the viability at 48 h, 25 µM came out at 79.3%.
For `COc1ccc(N(C)C(=O)C(C)Cl)cc1Cl` (stereo not drawn) [7-C14, 2-chloro-N-(3-chloro-4-methoxyphenyl)-N-methylpropanamide] the value was 80.4%.
For `CC(Cl)C(=O)N1CCCc2ccc(N(C)C)cc2C1` (stereo not drawn) [7-C15, 2-chloro-1-[8-(dimethylamino)-2,3,4,5-tetrahydro-1H-2-benzazepin-2-yl]propan-1-one] the value was 82.1%; for `CC(Cl)C(=O)N(C)C1CCN(c2ccccc2Cl)C1=O` (stereo not drawn) [7-C16, 2-chloro-N-[1-(2-chlorophenyl)-2-oxopyrrolidin-3-yl]-N-methylpropanamide], 77.8%; for `CC(Cl)C(=O)NC1CCN(c2ccccc2C(F)(F)F)C1` (stereo not drawn) [7-C17, 2-chloro-N-{1-[2-(trifluoromethyl)phenyl]pyrrolidin-3-yl}propanamide], 67.5%.
As for `Cc1ncccc1OCC1CCCN1C(=O)C(C)Cl` (stereo not drawn) [7-C18, 2-chloro-1-(2-{[(2-methylpyridin-3-yl)oxy]methyl}pyrrolidin-1-yl)propan-1-one], the figure is 76.6%.
In the case of `CC(Cl)C(=O)NC(c1ccc(F)cc1)c1cnn(C)c1` (stereo not drawn) [7-C19, 2-chloro-N-[(4-fluorophenyl)(1-methyl-1H-pyrazol-4-yl)methyl]propanamide], the viability at 48 h, 25 µM is 93.1%.
As for `CCc1cnc(N2CCN(C(=O)C(C)Cl)CC2)s1` (stereo not drawn) [7-C20, 2-chloro-1-[4-(5-ethyl-1,3-thiazol-2-yl)piperazin-1-yl]propan-1-one], the figure is 79.5%; as for `CC(Cl)C(=O)NC1CCCN(c2ncccn2)C1` (stereo not drawn) [7-C21, 2-chloro-N-[1-(pyrimidin-2-yl)piperidin-3-yl]propanamide], 93.1%.
In the case of `CC(Cl)C(=O)N1CCN(CC(F)(F)F)CC1C(C)C` (stereo not drawn) [7-C22, 2-chloro-1-[2-(propan-2-yl)-4-(2,2,2-trifluoroethyl)piperazin-1-yl]propan-1-one], the viability at 48 h, 25 µM was found to be 91.5%.
Turning to `CCC(NC(=O)CCl)c1c(C)noc1C` (stereo not drawn) [7-D03, 2-chloro-N-[1-(3,5-dimethyl-1,2-oxazol-4-yl)propyl]acetamide], the viability at 48 h, 25 µM came out at 104%.
Regarding `CN1C(=O)[C@H](NC(=O)CCl)COc2ccccc21` [7-D04, 2-chloro-N-[(3R)-5-methyl-4-oxo-2,3,4,5-tetrahydro-1,5-benzoxazepin-3-yl]acetamide], the viability at 48 h, 25 µM came to 2.02%.
For `O=C(CCl)NCc1cn[nH]c1C(F)F` [7-D05, 2-chloro-N-{[5-(difluoromethyl)-1H-pyrazol-4-yl]methyl}acetamide] the value was 0.404%; for `N#Cc1cccc2c1CC[C@H]2NC(=O)CCl` [7-D06, 2-chloro-N-[(1R)-4-cyano-2,3-dihydro-1H-inden-1-yl]acetamide], 0.673%.
In the case of `CC(Cl)C(=O)NC1CCN(Cc2cscn2)CC1` (stereo not drawn) [7-D07, 2-chloro-N-{1-[(1,3-thiazol-4-yl)methyl]piperidin-4-yl}propanamide], the viability at 48 h, 25 µM is 111%.
For `CCC(NC(=O)CCl)c1cccc(OC)n1` (stereo not drawn) [7-D08, 2-chloro-N-[1-(6-methoxypyridin-2-yl)propyl]acetamide] the value was 1.69%; for `CC(Cl)C(=O)NCCc1nnc2n1CCCCC2` (stereo not drawn) [7-D09, 2-chloro-N-(2-{5H,6H,7H,8H,9H-[1,2,4]triazolo[4,3-a]azepin-3-yl}ethyl)propanamide], 101%; for `COC1(OC)CCOCC1NC(=O)CCl` (stereo not drawn) [7-D10, 2-chloro-N-(4,4-dimethoxyoxan-3-yl)acetamide], 19.1%.
As for `Cc1nnc(C(C)NC(=O)C(C)Cl)s1` (stereo not drawn) [7-D11, 2-chloro-N-[1-(5-methyl-1,3,4-thiadiazol-2-yl)ethyl]propanamide], the figure is 104%; as for `O=C(CCl)N[C@H]1C[C@H](c2ccccc2)C1` [7-D12, 2-chloro-N-[(1r,3r)-3-phenylcyclobutyl]acetamide], 0.742%; as for `CC(Cl)C(=O)N1CCN(c2oc(-c3ccco3)nc2C#N)CC1` (stereo not drawn) [7-D13, 5-[4-(2-chloropropanoyl)piperazin-1-yl]-2-(furan-2-yl)-1,3-oxazole-4-carbonitrile], 85%.
Consider `CSc1ccccc1CC(C)NC(=O)CCl` (stereo not drawn) [7-D14, 2-chloro-N-{1-[2-(methylsulfanyl)phenyl]propan-2-yl}acetamide], for which the viability at 48 h, 25 µM amounted to 1.59%.
For `CC(Cl)C(=O)N1CCCCC1c1nc(-c2ncccn2)no1` (stereo not drawn) [7-D15, 2-chloro-1-{2-[3-(pyrimidin-2-yl)-1,2,4-oxadiazol-5-yl]piperidin-1-yl}propan-1-one] the value was 85.8%; for `O=C(CCl)NC(c1ccc(F)c(Cl)c1)C(F)(F)F` (stereo not drawn) [7-D16, 2-chloro-N-[1-(3-chloro-4-fluorophenyl)-2,2,2-trifluoroethyl]acetamide], 0.544%.
With `CC(Cl)C(=O)N1CCn2c(cc3c(Cl)cccc32)C1` (stereo not drawn) [7-D17, 2-chloro-1-{9-chloro-1H,2H,3H,4H-pyrazino[1,2-a]indol-2-yl}propan-1-one], the viability at 48 h, 25 µM came to 55.6%.
Consider `O=C(CN(CC1CCCO1)C(=O)CCl)N1CCCC1` (stereo not drawn) [7-D18, 2-chloro-N-[2-oxo-2-(pyrrolidin-1-yl)ethyl]-N-[(oxolan-2-yl)methyl]acetamide], for which the viability at 48 h, 25 µM was 99.8%.
As for `Cc1cc(C2CCCN2C(=O)C(C)Cl)no1` (stereo not drawn) [7-D19, 2-chloro-1-[2-(5-methyl-1,2-oxazol-3-yl)pyrrolidin-1-yl]propan-1-one], the figure is 88.5%; as for `CC(NC(=O)CCl)C(c1ccccc1Cl)n1cccn1` (stereo not drawn) [7-D20, 2-chloro-N-[1-(2-chlorophenyl)-1-(1H-pyrazol-1-yl)propan-2-yl]acetamide], 1.01%; as for `CC(Cl)C(=O)NCc1ccc2cnn(C)c2c1` (stereo not drawn) [7-D21, 2-chloro-N-[(1-methyl-1H-indazol-6-yl)methyl]propanamide], 87.7%.
As for `O=C(CCl)NCc1ccc(Cl)c(C(F)(F)F)c1` [7-D22, 2-chloro-N-{[4-chloro-3-(trifluoromethyl)phenyl]methyl}acetamide], the figure is 0.676%; as for `CC(Cl)C(=O)NCCc1nnc(C(C)C)s1` (stereo not drawn) [7-E03, 2-chloro-N-{2-[5-(propan-2-yl)-1,3,4-thiadiazol-2-yl]ethyl}propanamide], 123%.
As to `COc1ccc2c(c1)OCCN(C(=O)C(C)Cl)C2` (stereo not drawn) [7-E04, 2-chloro-1-(8-methoxy-2,3,4,5-tetrahydro-1,4-benzoxazepin-4-yl)propan-1-one], the viability at 48 h, 25 µM was 122%.
On to `CC(Cl)C(=O)N(Cc1nc(C2CCCCCC2)no1)C1CC1` (stereo not drawn) [7-E05, 2-chloro-N-[(3-cycloheptyl-1,2,4-oxadiazol-5-yl)methyl]-N-cyclopropylpropanamide], for which the viability at 48 h, 25 µM is 78.1%.
For `CC(Cl)C(=O)NC1CCc2ccccc2-n2ccnc21` (stereo not drawn) [7-E06, 2-chloro-N-{2,5-diazatricyclo[8.4.0.0,2,6]tetradeca-1(14),3,5,10,12-pentaen-7-yl}propanamide], the viability at 48 h, 25 µM is 88.2%.
As for `CC(Cl)C(=O)N1CCN(C(=O)c2ccc3ccccc3c2)CC1` (stereo not drawn) [7-E07, 2-chloro-1-[4-(naphthalene-2-carbonyl)piperazin-1-yl]propan-1-one], the figure is 96.2%.
In the case of `COc1ccc2ccccc2c1-c1cc(CNC(=O)C(C)Cl)on1` (stereo not drawn) [7-E08, 2-chloro-N-{[3-(2-methoxynaphthalen-1-yl)-1,2-oxazol-5-yl]methyl}propanamide], the viability at 48 h, 25 µM was found to be 87.9%.
For `Cc1csc(CN(CC2CCCO2)C(=O)C(C)Cl)n1` (stereo not drawn) [7-E09, 2-chloro-N-[(4-methyl-1,3-thiazol-2-yl)methyl]-N-[(oxolan-2-yl)methyl]propanamide] the value was 94.1%.
For the compound `Cc1noc(C23CC(CN2C(=O)C(C)Cl)C3)n1` (stereo not drawn) [7-E10, 2-chloro-1-[1-(3-methyl-1,2,4-oxadiazol-5-yl)-2-azabicyclo[2.1.1]hexan-2-yl]propan-1-one], the viability at 48 h, 25 µM turned out to be 93.2%.
For `CC(Cl)C(=O)N1CCn2cccc2C1c1ccccc1` (stereo not drawn) [7-E11, 2-chloro-1-{1-phenyl-1H,2H,3H,4H-pyrrolo[1,2-a]pyrazin-2-yl}propan-1-one] the value was 97.1%.
For `CC(Cl)C(=O)NC(Cc1ccccc1)c1ncco1` (stereo not drawn) [7-E12, 2-chloro-N-[1-(1,3-oxazol-2-yl)-2-phenylethyl]propanamide], the viability at 48 h, 25 µM came to 84.4%.
